# ChEMBL document CHEMBL1250449, “Aminoglycoside activity observed on single pre-translocation ribosome complexes” (Nat Chem Biol, 2010)
# The source made the active and inactive calls. The rule behind the calls is not given here. Numbered stars: 1 amine (or outer) side, 2 acyl side, 3 side chain; on linkers, the order of the positions; unused ones are H or OH. Bridge positions count the residues as written; N and C are the ends. Square brackets hold non-standard residues; d marks the D form. Peptide text beside a SMILES is read from it. * marks the point of attachment. X1 = NC1=N[C@@H]([C@H](N[*:1])C(=O)[*:2])C[C@H](O)N1; ΔAla(Z-3-ureido) = NC(=O)N/C=C(\N)C(=O)O; β3hOrn = NCCC[C@H](N)CC(=O)*; Dap = NC[C@H](N)C(=O)O
# What was measured:
# [1] = test system: Nucleic Acid; assay: Binding affinity to Escherichia coli 23S rRNA assessed as increase in classical-state occupancy by tRNA at 20 uM by smFRET; type: nucleic-acid assay; conditions: MRE600
# [2] = test system: Nucleic Acid; assay: Binding affinity to Escherichia coli 23S rRNA G2553C mutant assessed as increase in classical-state occupancy by tRNA at 20 uM by smFRET; type: nucleic-acid assay; conditions: MRE600
# [3] = test system: Nucleic Acid; assay: Binding affinity to Escherichia coli 16S rRNA helix 44 assessed as classical-state occupancy by tRNA; type: nucleic-acid assay; design: concentration or dose not given beside the values; conditions: MRE600
# [4] = test system: Nucleic Acid; assay: Binding affinity to Escherichia coli 16S rRNA helix 44 assessed as tRNA translocation rate; type: nucleic-acid assay; conditions: MRE600
# [5] = test system: Nucleic Acid; assay: Binding affinity to Escherichia coli 16S rRNA helix 44 assessed as increase in classical-state occupancy by tRNA at 20 nM to 200 uM by smFRET; type: nucleic-acid assay; conditions: MRE600
# [6] = test system: Nucleic Acid; assay: Binding affinity to Escherichia coli 16S rRNA helix 44 assessed as increase in classical-state occupancy by tRNA at >=20 uM by smFRET; type: nucleic-acid assay; conditions: MRE600
# [7] = test system: Nucleic Acid; assay: Binding affinity to Escherichia coli 16S rRNA helix 44 assessed as increase in classical-state occupancy by tRNA by smFRET; type: nucleic-acid assay; conditions: MRE600, TDE = time-dependent effect
# [8] = test system: Nucleic Acid; assay: Binding affinity to Escherichia coli 23S rRNA G2553C mutant assessed as increase in classical-state occupancy by tRNA by smFRET; type: nucleic-acid assay; conditions: MRE600
# [9] = test system: Nucleic Acid; assay: Binding affinity to Escherichia coli 16S rRNA helix 44 assessed as stabilization of classical state occupancy by tRNA by smFRET; type: nucleic-acid assay, MRE600
# [10] = test system: Nucleic Acid; assay: Binding affinity to Escherichia coli 23S rRNA assessed as stabilization of classical state occupancy by tRNA by smFRET; type: nucleic-acid assay, MRE600
# [11] = test system: Nucleic Acid; assay: Binding affinity to Escherichia coli 16S A1408G rRNA assessed as increase in classical-state occupancy by tRNA by smFRET; type: nucleic-acid assay; conditions: MRE600
# [12] = test system: Escherichia coli; assay: Stabilization of classical-state occupancy by tRNA in ribosomal pre-translocation complex in Escherichia coli MRE600 expressing 16S A1408G and 23S G2553C rRNA mutant by smFRET; type: functional
# [13] = test system: Nucleic Acid; assay: Binding affinity to Escherichia coli 16S rRNA helix 44 assessed as reduction in rate of tRNA exit from classical state at 100 nM; type: nucleic-acid assay; conditions: MRE600
# [14] = test system: Nucleic Acid; assay: Binding affinity to Escherichia coli 16S rRNA helix 44 assessed as reduction in rate of tRNA translocation at 100 nM; type: nucleic-acid assay; conditions: MRE600
# [15] = test system: Nucleic Acid; assay: Binding affinity to Escherichia coli 16S rRNA helix 44 assessed as classical-state occupancy by tRNA at 100 nM (Rvb= 62.4+/-1.1%); type: nucleic-acid assay; conditions: MRE600
# [16] = test system: Nucleic Acid; assay: Binding affinity to Escherichia coli 23S rRNA H69 assessed as classical-state occupancy by tRNA at 20 uM (Rvb= 62.4+/-1.1%); type: nucleic-acid assay; conditions: MRE600
# [17] = test system: Nucleic Acid; assay: Binding affinity to Escherichia coli 16S rRNA helix 44 assessed as tRNA translocation rate at 100 nM (Rvb= 1.57+/-0.05 /sec); type: nucleic-acid assay; conditions: MRE600
# [18] = test system: Nucleic Acid; assay: Binding affinity to Escherichia coli 23S rRNA H69 assessed as tRNA translocation rate at 20 uM (Rvb= 1.57+/-0.05 /sec); type: nucleic-acid assay; conditions: MRE600
# [19] = test system: Nucleic Acid; assay: Binding affinity to Escherichia coli 23S rRNA assessed as decrease in classical-state occupancy by tRNA at 20 uM by smFRET; type: nucleic-acid assay; design: scale not given: the % may be the effect or the level left; conditions: MRE600
# [20] = test system: Nucleic Acid; assay: Binding affinity to Escherichia coli 16S rRNA helix 44 assessed as increase in classical-state occupancy by tRNA at 100 nM by smFRET; type: nucleic-acid assay; conditions: MRE600
# [21] = test system: Nucleic Acid; assay: Binding affinity to Escherichia coli 16S rRNA helix 44 assessed as decrease in classical-state occupancy by tRNA at 20 uM by smFRET; type: nucleic-acid assay; design: scale not given: the % may be the effect or the level left; conditions: MRE600
# [22] = biological target: T1, Bacterial 70S ribosome (Bacteria) (UniProt P0A7V0+P60723+P0AG67+P0A7R5+P0A7R9+P0A7S3+P0A7S9+P0AG59+P0ADZ4+P0A7T3+P0AG63+P0A7T7+P0A7U3+P0A7U7+P68679+P0A7V3+P0A7V8+P0A7W1+P02358+P02359+P0A7W7+P0A7X3+P0A7J3+P0A7J7+P0AA10+P0ADY3+P02413+P0ADY7+P0AG44+P0C018+P0A7K6+P0A7L0+P0A7L3+P0AG48+P61175+P0ADZ0+P60624+P68919+P0A7L8+P0A7M2+P0A7M6+P60422+P0AG51+P0A7N1+P0A7M9+P0A7N4+P0A7N9+P0A7P5+P0A7Q1+Q2EEQ2+P0A7Q6+P60438+P62399+P0AG55+P0A7K2); assay: Binding affinity to Escherichia coli ribosomal pre-translocation complex assessed as stabilization of hybrid-state occupancy by tRNA at <2 uM; conditions: MRE600
# [23] = biological target: T1, Bacterial 70S ribosome (Bacteria); assay: Binding affinity to Escherichia coli ribosomal pre-translocation complex assessed as stabilization of classical-state occupancy by tRNA at 200 uM; conditions: MRE600
# [24] = biological target: T1, Bacterial 70S ribosome (Bacteria); assay: Binding affinity to Escherichia coli ribosomal pre-translocation complex assessed as decreased rate of EF-G-catalyzed translocation by tRNA at <2 uM; conditions: MRE600
# [25] = biological target: T1, Bacterial 70S ribosome (Bacteria); assay: Binding affinity to Escherichia coli ribosomal pre-translocation complex assessed as stabilization of hybrid-state occupancy by tRNA at 100 nM; conditions: MRE600
# [26] = biological target: T1, Bacterial 70S ribosome (Bacteria); assay: Binding affinity to Escherichia coli ribosomal pre-translocation complex assessed as decreased rate of EF-G-catalyzed translocation by tRNA at 100 nM; conditions: MRE600
# [27] = biological target: T1, Bacterial 70S ribosome (Bacteria); assay: Binding affinity to Escherichia coli ribosomal pre-translocation complex assessed as decreased rate of EF-G-catalyzed translocation fraction by tRNA at 100 nM; conditions: MRE600
# [28] = biological target: T1, Bacterial 70S ribosome (Bacteria); assay: Binding affinity to Escherichia coli ribosomal pre-translocation complex assessed as stabilization of hybrid-state occupancy by tRNA at 2 uM; conditions: MRE600
# [29] = test system: Nucleic Acid; assay: Binding affinity to Escherichia coli ribosomal pre-translocation complex assessed as classical-state occupancy by tRNA at 200 uM (Rvb= 62.4+/-1.1%); type: nucleic-acid assay; conditions: MRE600
# [30] = test system: Nucleic Acid; assay: Binding affinity to Escherichia coli ribosomal pre-translocation complex assessed as tRNA translocation rate at 200 uM (Rvb= 1.57+/-0.05 /sec); type: nucleic-acid assay; conditions: MRE600
# [31] = test system: Escherichia coli; assay: Increase in hybrid-state occupancy by tRNA in ribosomal pre-translocation complex in Escherichia coli MRE600 by smFRET method in presence of 20 uM neomycin; type: functional, organism-based
# [32] = test system: Escherichia coli; assay: Increase in hybrid-state occupancy by tRNA in ribosomal pre-translocation complex in Escherichia coli MRE600 by smFRET method in presence of 10 uM neomycin; type: functional
# [33] = test system: Nucleic Acid; assay: Binding affinity to Escherichia coli 16S rRNA helix 44 assessed as increase in classical-state occupancy by tRNA by […]; type: nucleic-acid assay, MRE600
# [34] = test system: Nucleic Acid; assay: Binding affinity to Escherichia coli 23S rRNA H69 assessed as increase in classical-state occupancy by tRNA by […]; type: nucleic-acid assay; conditions: MRE600
# [35] = test system: Escherichia coli; assay: Increase in classical-state occupancy by tRNA in ribosomal pre-translocation complex in Escherichia coli MRE600 by smFRET method in presence of 200 nM neomycin; type: functional, organism-based
smiles,measurement,setting,value
NC[C@@H]1O[C@H](O[C@H]2[C@@H](O)[C@H](O[C@@H]3[C@@H](O)[C@H](N)C[C@H](N)[C@H]3O[C@H]3O[C@H](CO)[C@@H](O)[C@H](O)[C@H]3N)O[C@@H]2CO)[C@H](N)[C@@H](O)[C@@H]1O,Activity,[1],2%
same,Activity,[2],12%
same,Activity,[3],63.9%
same,Activity,[4],0.51 s⁻¹
NC[C@@H]1O[C@@H](O[C@H]2[C@H](O)[C@@H](O[C@H]3O[C@H](CO)[C@@H](O)[C@H](N)[C@H]3O)[C@H](N)C[C@@H]2N)[C@@H](O)[C@H](O)[C@H]1O [KANAMYCIN A],Activity,[5],Dose-dependent effect
same,Activity,[6],Active
same,Activity,[7],tde
same,Activity,[8],25%
same,Activity,[1],8%
same,EC50,[9],300 nM
same,EC50,[10],300 nM
same,Activity,[11],inactive
same,Activity,[12],10%
same,Activity,[2],25%
same,Activity,[3],69.6%
same,Activity,[4],0.27 s⁻¹
NC[C@@H]1O[C@H](O[C@H]2[C@@H](O)[C@H](O[C@@H]3[C@@H](O)[C@H](N)C[C@H](N)[C@H]3O[C@H]3O[C@H](CN)[C@@H](O)[C@H](O)[C@H]3N)O[C@@H]2CO)[C@H](N)[C@@H](O)[C@@H]1O,fold change (FC),[13],1.5
same,fold change (FC),[14],3
same,Activity,[15],70.3%
same,Activity,[16],52%
same,Activity,[17],0.31 s⁻¹
same,Activity,[18],0.06 s⁻¹
same,Activity,[19],10%
same,Activity,[20],6%
same,Activity,[21],10%
CN[C@@H]1[C@@H](O)[C@@H](O[C@@H]2[C@@H](O)[C@H](O[C@H]3O[C@H]([C@@H](C)N)CC[C@H]3N)[C@@H](N)C[C@H]2N)OC[C@]1(C)O,Activity,[1],5%
same,Activity,[2],18%
same,Activity,[3],67.2%
same,Activity,[4],0.42 s⁻¹
NC[C@H]1O[C@H](O[C@H]2[C@H](O)[C@@H](O[C@H]3O[C@H](CO)[C@@H](O)[C@H](N)[C@H]3O)[C@H](N)C[C@@H]2N)[C@H](N)[C@@H](O)[C@@H]1O [BEKANAMYCIN],Activity,[5],Dose-dependent effect
same,Activity,[6],Active
same,Activity,[7],tde
same,Activity,[8],25%
same,Activity,[1],8%
same,EC50,[9],300 nM
same,EC50,[10],300 nM
same,Activity,[11],inactive
same,Activity,[12],10%
same,Activity,[2],25%
same,Activity,[3],69.6%
same,Activity,[4],0.27 s⁻¹
NCCC[C@H](N)CC(=O)N[C@H]1CNC(=O)[C@H]([C@H]2C[C@H](O)NC(N)=N2)NC(=O)/C(=C/NC(N)=O)NC(=O)[C@H](CO)NC(=O)[C@H](CO)NC1=O (β3hOrn-[Dap]SS[ΔAla(Z-3-ureido)][X1]; lactam 1-C),Activity,[22],Active
same,Activity,[23],Active
same,Activity,[24],Active
same,Activity,[25],10%
same,fold change (FC),[26],1.5
same,fold change (FC),[27],2
same,Activity,[28],Active
same,Activity,[29],46.8%
same,Activity,[30],0.04 s⁻¹
COc1ccc(C[C@H](N)C(=O)N[C@H]2[C@@H](O)[C@H](n3cnc4c(N(C)C)ncnc43)O[C@@H]2CO)cc1 [PUROMYCIN],Activity,[31],Active
same,Activity,[32],25%
same,EC50,[33],100 nM
same,Activity,[34],> 1 µM
same,Activity,[35],Active
CN[C@@H]1[C@@H](O)[C@@H](O[C@@H]2[C@@H](O)[C@H](O[C@H]3O[C@H]([C@@H](C)NC)CC[C@H]3N)[C@@H](N)C[C@H]2N)OC[C@]1(C)O,Activity,[1],5%
same,Activity,[2],14%
same,Activity,[3],67.2%
same,Activity,[4],0.42 s⁻¹
